The text below walks through data of US12629374B2, “Antimalarial agents” (Merck Sharp & Dohme LLC, priority 2020, dated 2026).

Where a name gives a salt, the structure may show the parent alone.

One assay relates to ring stage parasites. Put plainly: Parasite growth potency assay, 72 hours, LDH readout. The class given is cell-based. The following applies: 72 h, parasite growth measured by LDH assay after 72 hours at 37° C.; 0.7% rings, 2% haematocrit; read-out: EC50. The gist of the method:
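Parasite growth was quantified by LDH assay after a −80 °C freeze-thaw. Before that, compound was incubated for 72 h at 37 °C under humidified gas with ring-stage cultures adjusted to 0.7% parasitemia and 2% haematocrit in serum- and albumax-supplemented RPMI-Hepes.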
Regarding `CCC1(CC)CC(=O)N(Cc2cccc(C(=O)N[C@H]3CCOc4ccccc43)c2F)C(=N)N1` [Example 20, [1-[[3-[[(4S)-chroman-4-yl]carbamoyl]-2-fluoro-phenyl]methyl]-4,4-diethyl-6-oxo-hexahydropyrimidin-2-ylidene]ammonium; 2,2,2-trifluoroacetate], the EC50 is 10.9 nM.
As to `CCC1(CC)CC(=O)N([C@@H](COCCOC)c2cccc(C(=O)N[C@H]3CC(C)(C)Oc4ccccc43)c2)C(=N)N1` (single isomer, unassigned) [Example 112B, trifluoroacetate], the EC50 was determined as 59.6 nM.
The same measure, in the same setting: in the case of `CCC1(CC)CC(=O)N(Cc2cccc(C(=O)N[C@@H]3c4ccccc4OC(C)(C)[C@H]3O)c2)C(=N)N1` [Example 1, 3-((4,4-diethyl-2-imino-6-oxotetrahydropyrimidin-1(2H)-yl)methyl)-N-((3S,4R)-3-hydroxy-2,2-dimethylchroman-4-yl)benzamide] it was 0.8 nM; in that of `CC(C)[C@]1(C)CC(=O)N([C@H](C)c2cccc(C(=O)N[C@@H]3c4ccccc4C[C@H]3O)c2)C(=N)N1` [Example 27, [(4S)-1-[1-[3-[[(1R,2R)-2-hydroxyindan-1-yl]carbamoyl]phenyl]ethyl]-4-isopropyl-4-methyl-6-oxo-hexahydropyrimidin-2-ylidene]ammonium; 2,2,2-trifluoroacetate], 3.2 nM; in that of `C#CCC[C@@H](c1cccc(C(=O)NC2CC(C)(C)Oc3ccccc32)c1)N1C(=N)NC(CC)(CC)CC1=O` (stereo partly drawn) [Example 214A, 3-[(1S)-1-(4,4-diethyl-2-imino-6-oxo-hexahydropyrimidin-1-yl)pent-4-ynyl]-N-(2,2-dimethylchroman-4-yl)benzamide], 26.3 nM.
For `COCC[C@H](c1cccc(C(=O)N[C@H]2CC(C)(C)Oc3ccccc32)c1)N1C(=N)NC(C)(C)CC1=O` [Example 177, [1-[(1R)-1-[3-[[(4S)-2,2-dimethylchroman-4-yl]carbamoyl]phenyl]-3-methoxy-propyl]-4,4-dimethyl-6-oxo-hexahydropyrimidin-2-ylidene]ammonium; 2,2,2-trifluoroacetate], the EC50 worked out at 2.1 nM.
For `CCC1(CC)CC(=O)N(Cc2cc(C#N)cc(C(=O)N[C@H]3CC(C)(C)Oc4ccccc43)c2)C(=N)N1` (stereo in doubt) [Example 89B, [1-[[3-cyano-5-[(2,2-dimethylchroman-4-yl)carbamoyl]phenyl]methyl]-4,4-diethyl-6-oxo-hexahydropyrimidin-2-ylidene]ammonium; 2,2,2-trifluoroacetate], the EC50 amounted to 1.6 nM.
Regarding `C#CCC[C@H](c1cccc(C(=O)N[C@H]2CC(C)(C)Oc3ccccc32)c1)N1C(=N)NC(CC)(CC)CC1=O` [Example 214C, 3-[(1R)-1-(4,4-diethyl-2-imino-6-oxo-hexahydropyrimidin-1-yl)pent-4-ynyl]-N-(2,2-dimethylchroman-4-yl)benzamide], the EC50 amounted to 0.4 nM.
`CCC1(CC)CC(=O)N([C@H](c2cccc(C(=O)N[C@H]3CC(C)(C)Oc4ccccc43)c2)c2cncs2)C(=N)N1` (stereo in doubt) [Example 90C, 3-[(4,4-diethyl-2-imino-6-oxo-hexahydropyrimidin-1-yl)-thiazol-5-yl-methyl]-N-(2,2-dimethylchroman-4-yl)benzamide]: the concentration for a half-maximal effect (EC50) came to 12 nM.
Still for that read-out and setting: under `COCC[C@H](c1cc(F)cc(C(=O)N[C@@H]2c3ccccc3C[C@H]2O)c1)N1C(=N)NC(C)(C)CC1=O` [Example 169, [1-[1-[3-fluoro-5-[[(1R,2R)-2-hydroxyindan-1-yl]carbamoyl]phenyl]-3-methoxy-propyl]-4,4-dimethyl-6-oxo-hexahydropyrimidin-2-ylidene]ammonium; 2,2,2-trifluoroacetate] stands 4.7 nM.
`COCC[C@H](c1cccc(C(=O)N[C@@H]2c3ccccc3CC2(O)C(F)(F)F)c1)N1C(=N)NC(C)(C)CC1=O` (stereo partly drawn) [Example 188, [1-[(1R)-1-[3-[[2-hydroxy-2-(trifluoromethyl)indan-1-yl]carbamoyl]phenyl]-3-methoxy-propyl]-4,4-dimethyl-6-oxo-hexahydropyrimidin-2-ylidene]ammonium; 2,2,2-trifluoroacetate]: the EC50 turned out to be 7.3 nM.
As to `COCC[C@H](c1cccc(C(=O)N[C@@H]2c3cc(F)ccc3C[C@H]2O)c1)N1C(=N)NC(C)(C)CC1=O` [Example 200, [1-[(1R)-1-[3-[(6-fluoro-2-hydroxy-indan-1-yl)carbamoyl]phenyl]-3-methoxy-propyl]-4,4-dimethyl-6-oxo-hexahydropyrimidin-2-ylidene]ammonium; 2,2,2-trifluoroacetate], the EC50 amounted to 7.1 nM.
Turning to `CCC1(CC)CC(=O)N([C@H](CCOC)c2cccc(C(=O)N[C@@H]3c4ccccc4OCC3(C)O)c2)C(=N)N1` (stereo in doubt) [Example 143A, 3-[1-(4,4-diethyl-2-imino-6-oxo-hexahydropyrimidin-1-yl)-3-methoxy-propyl]-N-(3-hydroxy-3-methyl-chroman-4-yl)benzamide], the EC50 came out at 2.2 nM.
As to `C#CCC[C@H](c1cccc(C(=O)N[C@H]2CCOc3ccccc32)c1)N1C(=N)NC(CC)(CC)CC1=O` [Example 209, [1-[1-[3-LL(4R)-chroman-4-yl]carbamoyl]phenyl]pent-4-ynyl]-4,4-diethyl-6-oxo-hexahydropyrimidin-2-ylidene]ammonium; 2,2,2-trifluoroacetate], the EC50 amounted to 8.9 nM.
As for `CC[C@H](c1cccc(C(=O)N[C@@H]2c3ccccc3C[C@H]2O)c1)N1C(=N)NC(CC)(CC)CC1=O` [Example 208, [4,4-diethyl-1-[1-[3-[[(1R,2R)-2-hydroxyindan-1-yl]carbamoyl]phenyl]propyl]-6-oxo-hexahydropyrimidin-2-ylidene]ammonium; 2,2,2-trifluoroacetate], the EC50 came out at 0.7 nM.
As for `CCC[C@H](c1cccc(C(=O)N[C@H]2CCOc3ccccc32)c1)N1C(=N)N[C@@](CC)(c2ccccc2)CC1=O` [Example 66, [(4R)-1-[(1R)-1-[3-[[(4S)-chroman-4-yl]carbamoyl]phenyl]butyl]-4-ethyl-6-oxo-4-phenyl-hexahydropyrimidin-2-ylidene]ammonium; 2,2,2-trifluoroacetate], the EC50 was found to be 7.5 nM.
Regarding `CC1(C)CC(=O)N(Cc2cccc(C(=O)N[C@@H]3c4ccccc4OC(C)(C)C3(C)O)c2)C(=N)N1` (stereo in doubt) [Example 185, N-(3-hydroxy-2,2,3-trimethyl-chroman-4-yl)-3-[(2-imino-4,4-dimethyl-6-oxo-hexahydropyrimidin-1-yl)methyl]benzamide], the EC50 came to 62.5 nM.
Take `CCC1(CC)CC(=O)N(C(CCOC)c2ccc(C(F)(F)F)c(C(=O)N[C@@H]3c4ccccc4C[C@H]3O)c2)C(=N)N1` (stereo partly drawn) [Example 239, 5-[1-(4,4-diethyl-2-imino-6-oxo-hexahydropyrimidin-1-yl)-3-methoxy-propyl]-N-[(1R,2R)-2-hydroxyindan-1-yl]-2-(trifluoromethyl)benzamide]: the EC50 was found to be 3.6 nM.
Consider `CCC1(CC)CC(=O)N([C@H](CCOC)c2cc(F)cc(C(=O)N[C@@H]3c4ccccc4OC3(C)COC)c2)C(=N)N1` (stereo partly drawn) [Example 176B, [4,4-diethyl-1-[(1R)-1-[3-fluoro-5-[[2-(methoxymethyl)-2-methyl-3H-benzofuran-3-yl]carbamoyl]phenyl]-3-methoxy-propyl]-6-oxo-hexahydropyrimidin-2-ylidene]ammonium; 2,2,2-trifluoroacetate], for which the EC50 stood at 0.9 nM.
Same read-out and setting: in the case of `CC1(C)CC(=O)N(Cc2cccc(C(=O)N[C@@H]3c4ccccc4OC(C)(C)[C@H]3O)c2)C(=N)N1` [Example 194, [1-[[3-[[(3S,4R)-3-hydroxy-2,2-dimethyl-chroman-4-yl]carbamoyl]phenyl]methyl]-4,4-dimethyl-6-oxo-hexahydropyrimidin-2-ylidene]ammonium; 2,2,2-trifluoroacetate] it was 11.6 nM; in that of `CCC[C@H](c1cccc(C(=O)N[C@@H]2c3ccccc3C[C@H]2O)c1)N1C(=N)N[C@](CC)(c2ccccc2)CC1=O` [Example 71, [(4S)-4-ethyl-1-[(1R)-1-[3-[[(1R,2R)-2-hydroxyindan-1-yl]carbamoyl]phenyl]butyl]-6-oxo-4-phenyl-hexahydropyrimidin-2-ylidene]ammonium; 2,2,2-trifluoroacetate], 9.3 nM.

The assay is the same for the next values; noted with them: parasite growth measured by LDH assay after 72 hours at 37° C.; 0.7% rings, 2% haematocrit; read-out: EC50.
For `CCC[C@H](c1cccc(C(=O)N[C@H]2c3ccccc3OCC2O)c1)N1C(=N)NC(CC)(CC)CC1=O` (stereo partly drawn) [Example 127C, 3-[(1R)-1-(4,4-diethyl-2-imino-6-oxo-hexahydropyrimidin-1-yl)butyl]-N-(3-hydroxychroman-4-yl)benzamide], the EC50 was 53.8 nM.
For the molecule `CCC12CCCCCCC3COc4ccccc4C3NC(=O)c3cccc(c3)CN(C(=N)N1)C(=O)C2` (single isomer, unassigned) [Example 120D, (26-ethyl-8,29-dioxo-17-oxa-1,9,27-triazapentacyclo[24.2.2.13,7.010,19. 011,16]hentriaconta-3,5,7(31),11(16),12,14-hexaen-28-ylidene)ammonium; 2,2,2-trifluoroacetate], the EC50 turned out to be 27.6 nM.
Take `CCC1(CC)CC(=O)N([C@H](CCOC)c2cccc(C(=O)N[C@@H]3c4ccccc4CC3(O)C(F)(F)F)c2)C(=N)N1` (single isomer, unassigned) [Example 204B]: the EC50 is 8.5 nM.

The same assay, now with this note: parasite growth measured by LDH assay after 72 hours at 37° C.; 0.7% rings, 2% haematocrit; trifluoroacetate; read-out: EC50.
Turning to `CCC1(COC)CC(=O)N(Cc2cccc(C(=O)N[C@H]3CC(C)(C)Oc4ccccc43)c2)C(=N)N1` (stereo partly drawn) [Example 98B, [1-[[3-[[(4S)-2,2-dimethylchroman-4-yl]carbamoyl]phenyl]methyl]-4-ethyl-4-(methoxymethyl)-6-oxo-hexahydropyrimidin-2-ylidene]ammonium; 2,2,2-trifluoroacetate], the EC50 worked out at 8.1 nM.
`CCC1(CC)CC(=O)N(Cc2cccc(C(=O)N[C@@H]3c4ccccc4OC3(C)CO)c2)C(=N)N1` (stereo in doubt) [Example 187A, [4,4-diethyl-1-[[3-[[2-(hydroxymethyl)-2-methyl-3H-benzofuran-3-yl]carbamoyl]phenyl]methyl]-6-oxo-hexahydropyrimidin-2-ylidene]ammonium; 2,2,2-trifluoroacetate]: the EC50 stood at 54.2 nM.
